Experiment [1] has as its target Bromodomain-containing protein 4 (Homo sapiens, UniProt O60885). As to the kind of experiment: Displacement of biotinylated small-molecule ligand from recombinant His-tagged BRD4 bromodomain 2 (unknown origin) measured after 10 mins by TR-FRET assay.
The next experiment concerns MV4-11. As to the kind of experiment: Cytotoxicity against human MV4-11 cells measured after 8 days. In kind it is functional, cell-based. To be noted: MV4-11, 192 h.
Another experiment concerns NCI-H2228. The experiment can be described thus: Cytotoxicity against human NCI-H2228 cells measured after 8 days. In kind it is functional, cell-based. To be noted: NCI-H2228, 192 h.
The test system of the next experiment is CA46. The experiment can be described thus: Cytotoxicity against human CA46 cells measured after 8 days. The following applies: CA46, 192 h. The format is functional, cell-based.
In another experiment the test system is NCI-H1703. As to the kind of experiment: Cytotoxicity against human NCI-H1703 cells measured after 8 days. The format is functional, cell-based. To be noted: NCI-H1703, 192 h.
The next experiment has as its system NCI-H1651. The experiment can be described thus: Cytotoxicity against human NCI-H1651 cells measured after 8 days. In kind it is functional, cell-based. To be noted: NCI-H1651, 192 h.
In another experiment the test system is NCI-H1975. The experiment can be described thus: Cytotoxicity against human NCI-H1975 cells measured after 8 days. In kind it is functional, cell-based. To be noted: NCI-H1975, 192 h.
Experiment [2] can be described thus: Cytotoxicity against human NCI-H2722 cells measured after 8 days. In kind it is functional, cell-based. The following applies: NCI-H2722, 192 h.
In another experiment the test system is Raji. The experiment can be described thus: Cytotoxicity against human Raji cells measured after 8 days. To be noted: 192 h. In kind it is functional, cell-based.
In a further experiment the test system is NCI-H292. The experiment can be described thus: Cytotoxicity against human NCI-H292 cells measured after 8 days. To be noted: NCI-H292, 192 h. The format is functional, cell-based.
In a further experiment the test system is Granta-519. The experiment can be described thus: Cytotoxicity against human Granta-519 cells measured after 8 days. The following applies: Granta-519, 192 h. In kind it is functional, cell-based.
The subject of another experiment is MHH-PREB-1. The experiment can be described thus: Cytotoxicity against human MHH-PREB-1 cells measured after 8 days. The format is functional, cell-based. The following applies: MHH-PREB-1, 192 h.
Another experiment deals with ONS-76. As to the kind of experiment: Cytotoxicity against human ONS-76 cells measured after 8 days. In kind it is functional, cell-based. The following applies: ONS-76, 192 h.
In the next experiment the test system is BT-549. As to the kind of experiment: Cytotoxicity against human BT-549 cells measured after 8 days. The format is functional, cell-based. The following applies: BT-549, 192 h.
A further experiment deals with HCC1954. As to the kind of experiment: Cytotoxicity against human HCC1954 cells measured after 8 days. In kind it is functional, cell-based. The following applies: HCC1954, 192 h.
For the next experiment, the system named is COLO 320. As to the kind of experiment: Cytotoxicity against human COLO 320 cells measured after 8 days. In kind it is functional, cell-based. To be noted: COLO 320, 192 h.
The next experiment concerns COLO 320DM. As to the kind of experiment: Cytotoxicity against human COLO 320DM cells measured after 8 days. In kind it is functional, cell-based. The following applies: 192 h.
Experiment [3] can be described thus: Cytotoxicity against human LS174T-HM7 cells measured after 8 days. The format is functional, cell-based. The following applies: LS174T-HM7, 192 h.
The next experiment deals with HCC515. The experiment can be described thus: Cytotoxicity against human HCC515 cells measured after 8 days. The following applies: HCC515, 192 h. In kind it is functional, cell-based.
The subject of the next experiment is HOP-92. As to the kind of experiment: Cytotoxicity against human HOP-92 cells measured after 8 days. In kind it is functional, cell-based. The following applies: HOP-92, 192 h.
The target of the next experiment is CREB-binding protein (Homo sapiens, UniProt Q92793). As to the kind of experiment: Binding affinity to human partial length CREBBP (R1081 to G1197 residues) expressed in bacterial expression system by BROMOscan assay.
CREB-binding protein, sequence (Q92793 whole entry, the tested form may be a part): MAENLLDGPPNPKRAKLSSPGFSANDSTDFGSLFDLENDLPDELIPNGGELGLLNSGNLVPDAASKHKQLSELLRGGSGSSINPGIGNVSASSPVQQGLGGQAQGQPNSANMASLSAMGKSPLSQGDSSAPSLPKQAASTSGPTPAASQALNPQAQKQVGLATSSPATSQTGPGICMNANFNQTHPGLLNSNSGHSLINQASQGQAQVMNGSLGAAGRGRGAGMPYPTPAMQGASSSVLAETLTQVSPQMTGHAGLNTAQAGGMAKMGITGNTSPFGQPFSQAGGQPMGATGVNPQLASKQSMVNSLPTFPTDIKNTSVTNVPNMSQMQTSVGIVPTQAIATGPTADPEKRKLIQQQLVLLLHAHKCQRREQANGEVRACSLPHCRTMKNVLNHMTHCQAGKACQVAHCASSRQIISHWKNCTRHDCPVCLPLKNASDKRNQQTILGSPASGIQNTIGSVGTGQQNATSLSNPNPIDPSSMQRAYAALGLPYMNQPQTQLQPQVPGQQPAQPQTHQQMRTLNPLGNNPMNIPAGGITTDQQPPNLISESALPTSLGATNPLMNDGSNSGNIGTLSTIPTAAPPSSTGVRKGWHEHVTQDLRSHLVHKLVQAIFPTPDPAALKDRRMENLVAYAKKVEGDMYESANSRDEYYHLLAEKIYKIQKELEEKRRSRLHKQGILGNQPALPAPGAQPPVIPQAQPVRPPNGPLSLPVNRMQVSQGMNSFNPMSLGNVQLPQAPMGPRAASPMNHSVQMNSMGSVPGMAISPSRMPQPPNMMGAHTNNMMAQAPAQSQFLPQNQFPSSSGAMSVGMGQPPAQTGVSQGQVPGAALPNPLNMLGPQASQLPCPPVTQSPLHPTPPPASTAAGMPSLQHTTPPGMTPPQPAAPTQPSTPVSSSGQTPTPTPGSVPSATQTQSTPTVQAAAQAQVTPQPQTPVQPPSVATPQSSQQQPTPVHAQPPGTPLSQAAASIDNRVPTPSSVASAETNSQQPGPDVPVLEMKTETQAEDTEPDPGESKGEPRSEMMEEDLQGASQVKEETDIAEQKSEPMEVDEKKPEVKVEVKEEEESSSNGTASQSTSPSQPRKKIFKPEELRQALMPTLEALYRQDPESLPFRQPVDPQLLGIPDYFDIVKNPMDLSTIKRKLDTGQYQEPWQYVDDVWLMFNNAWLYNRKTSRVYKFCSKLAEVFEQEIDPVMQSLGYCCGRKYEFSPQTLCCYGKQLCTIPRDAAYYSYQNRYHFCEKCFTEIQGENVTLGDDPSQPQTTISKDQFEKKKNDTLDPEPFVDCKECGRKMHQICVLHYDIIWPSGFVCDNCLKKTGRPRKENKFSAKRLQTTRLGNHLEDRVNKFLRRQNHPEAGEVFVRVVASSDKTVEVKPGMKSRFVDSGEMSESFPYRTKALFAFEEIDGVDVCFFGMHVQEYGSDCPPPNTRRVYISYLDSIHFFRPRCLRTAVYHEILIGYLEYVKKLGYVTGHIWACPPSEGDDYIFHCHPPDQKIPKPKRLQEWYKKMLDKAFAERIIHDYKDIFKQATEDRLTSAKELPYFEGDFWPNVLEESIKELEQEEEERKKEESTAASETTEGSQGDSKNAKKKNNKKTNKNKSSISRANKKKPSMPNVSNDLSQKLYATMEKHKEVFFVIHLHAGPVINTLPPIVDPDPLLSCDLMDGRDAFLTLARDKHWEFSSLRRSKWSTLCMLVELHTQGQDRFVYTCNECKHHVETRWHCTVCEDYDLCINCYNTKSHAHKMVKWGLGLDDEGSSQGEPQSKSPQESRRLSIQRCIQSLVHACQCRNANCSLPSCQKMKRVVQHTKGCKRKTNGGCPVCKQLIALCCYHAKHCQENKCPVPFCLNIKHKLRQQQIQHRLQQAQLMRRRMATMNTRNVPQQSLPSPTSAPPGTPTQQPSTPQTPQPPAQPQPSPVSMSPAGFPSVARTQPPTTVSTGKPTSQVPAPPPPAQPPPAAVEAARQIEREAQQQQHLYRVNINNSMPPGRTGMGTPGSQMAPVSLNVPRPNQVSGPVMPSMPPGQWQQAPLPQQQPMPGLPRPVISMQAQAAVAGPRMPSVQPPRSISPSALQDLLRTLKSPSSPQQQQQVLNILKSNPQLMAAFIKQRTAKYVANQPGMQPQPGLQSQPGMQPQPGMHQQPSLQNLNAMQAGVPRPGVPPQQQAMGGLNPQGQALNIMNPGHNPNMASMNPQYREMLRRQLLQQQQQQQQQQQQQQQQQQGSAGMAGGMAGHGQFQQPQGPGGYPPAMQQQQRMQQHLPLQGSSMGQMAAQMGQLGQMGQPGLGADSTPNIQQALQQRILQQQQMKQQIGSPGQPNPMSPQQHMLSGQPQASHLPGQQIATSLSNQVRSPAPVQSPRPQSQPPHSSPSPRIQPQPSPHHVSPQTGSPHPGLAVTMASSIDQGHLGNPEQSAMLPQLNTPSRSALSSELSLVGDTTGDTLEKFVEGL
Experiment [4] has as its target T1, Ephrin type-A receptor 1 (Homo sapiens) (UniProt P21709).
T1 sequence (whole entry): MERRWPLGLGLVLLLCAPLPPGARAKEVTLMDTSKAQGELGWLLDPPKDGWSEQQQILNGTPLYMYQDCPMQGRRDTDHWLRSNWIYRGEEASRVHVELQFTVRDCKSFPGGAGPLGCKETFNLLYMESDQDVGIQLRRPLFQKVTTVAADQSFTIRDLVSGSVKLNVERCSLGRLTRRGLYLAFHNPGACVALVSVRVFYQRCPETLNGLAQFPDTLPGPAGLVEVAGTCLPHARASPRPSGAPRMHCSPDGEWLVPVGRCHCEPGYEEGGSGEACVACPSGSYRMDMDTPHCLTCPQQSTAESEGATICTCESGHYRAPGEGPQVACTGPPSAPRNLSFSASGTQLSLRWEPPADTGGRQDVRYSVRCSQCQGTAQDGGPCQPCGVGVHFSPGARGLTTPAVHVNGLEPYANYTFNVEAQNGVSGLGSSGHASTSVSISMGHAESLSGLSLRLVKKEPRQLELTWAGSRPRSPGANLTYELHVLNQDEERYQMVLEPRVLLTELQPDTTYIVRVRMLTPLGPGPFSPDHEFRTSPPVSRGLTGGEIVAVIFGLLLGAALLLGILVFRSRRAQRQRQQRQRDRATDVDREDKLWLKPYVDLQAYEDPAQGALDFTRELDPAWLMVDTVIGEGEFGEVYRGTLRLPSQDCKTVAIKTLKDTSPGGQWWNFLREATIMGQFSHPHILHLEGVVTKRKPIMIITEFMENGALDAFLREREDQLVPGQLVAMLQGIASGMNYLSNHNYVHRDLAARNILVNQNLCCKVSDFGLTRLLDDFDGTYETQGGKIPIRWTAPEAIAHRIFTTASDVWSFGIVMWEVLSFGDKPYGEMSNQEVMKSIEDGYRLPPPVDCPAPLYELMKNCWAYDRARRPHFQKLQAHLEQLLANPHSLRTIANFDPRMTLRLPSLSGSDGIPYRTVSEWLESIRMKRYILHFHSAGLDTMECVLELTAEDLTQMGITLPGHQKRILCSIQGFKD
The experiment can be described thus: Inhibition of EphA1 (unknown origin) at 1 uM relative to control.

Experiment [5] concerns the target Tyrosine-protein kinase Lck (Homo sapiens) (UniProt P06239). The experiment can be described thus: Inhibition of LCK (unknown origin) at 1 uM relative to control.
Experiment [6] has as its target Serine/threonine-protein kinase 24 (Homo sapiens) (UniProt Q9Y6E0). The experiment can be described thus: Inhibition of MST3 (unknown origin) at 1 uM relative to control.
Experiment [7] deals with T2, Muscarinic acetylcholine receptor M2 (Homo sapiens) (UniProt P08172).
T2 sequence (whole entry): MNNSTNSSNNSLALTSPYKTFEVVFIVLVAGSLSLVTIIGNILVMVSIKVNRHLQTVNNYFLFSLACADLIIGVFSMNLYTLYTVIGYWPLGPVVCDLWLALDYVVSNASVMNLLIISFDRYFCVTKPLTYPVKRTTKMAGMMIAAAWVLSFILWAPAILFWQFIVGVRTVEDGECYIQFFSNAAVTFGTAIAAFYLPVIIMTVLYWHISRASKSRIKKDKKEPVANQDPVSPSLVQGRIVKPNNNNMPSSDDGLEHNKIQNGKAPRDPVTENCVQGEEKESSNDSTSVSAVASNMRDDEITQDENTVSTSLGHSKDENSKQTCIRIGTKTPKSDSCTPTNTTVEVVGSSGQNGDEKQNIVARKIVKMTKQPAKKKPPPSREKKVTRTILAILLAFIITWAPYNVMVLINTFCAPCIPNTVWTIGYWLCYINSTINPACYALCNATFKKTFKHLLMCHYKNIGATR
The experiment can be described thus: Displacement of [3H]AF-DX 384 from human recombinant M2 receptor at 10 uM after 60 mins by scintillation counting analysis relative to control.

The target of experiment [8] is 5-hydroxytryptamine receptor 2A (Homo sapiens) (UniProt P28223). The experiment can be described thus: Displacement of [3H]ketanserin human recombinant 5-HT2A receptor at 10 uM after 60 mins by scintillation counting analysis relative to control. For orientation: Loss of bound radioactivity is the signal in a displacement assay; it reports binding, not function.
5-hydroxytryptamine receptor 2A (Homo sapiens), sequence (P28223 whole entry): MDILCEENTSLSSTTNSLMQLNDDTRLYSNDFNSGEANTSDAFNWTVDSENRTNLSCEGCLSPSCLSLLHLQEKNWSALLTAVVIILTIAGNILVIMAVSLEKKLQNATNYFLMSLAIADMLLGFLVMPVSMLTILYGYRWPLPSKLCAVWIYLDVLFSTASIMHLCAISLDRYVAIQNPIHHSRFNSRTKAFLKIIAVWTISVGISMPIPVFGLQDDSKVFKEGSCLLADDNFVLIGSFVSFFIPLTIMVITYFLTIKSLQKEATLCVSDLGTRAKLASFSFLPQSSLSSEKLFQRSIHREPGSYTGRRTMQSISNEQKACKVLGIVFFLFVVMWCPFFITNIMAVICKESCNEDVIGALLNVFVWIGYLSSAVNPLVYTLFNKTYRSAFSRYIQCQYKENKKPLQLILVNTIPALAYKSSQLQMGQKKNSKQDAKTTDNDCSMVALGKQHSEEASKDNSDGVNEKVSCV
The species entered for the next experiment is Homo sapiens. The experiment can be described thus: Displacement of [3H]BRL 43694 from human recombinant 5-HT3 receptor at 10 uM after 120 mins by scintillation counting analysis relative to control.

What is called IC50 is the concentration at which inhibition is half-maximal. As usually defined, the Kd is the free concentration of one partner at which half of the binding sites on the other are occupied at equilibrium, for simple one-to-one binding. Read a low Kd as a tighter complex. A word on the inhibition: it is the change of the read-out against control, counted positive when it falls.

Serine/threonine-protein kinase 24 (Homo sapiens), sequence (Q9Y6E0 whole entry, looked up): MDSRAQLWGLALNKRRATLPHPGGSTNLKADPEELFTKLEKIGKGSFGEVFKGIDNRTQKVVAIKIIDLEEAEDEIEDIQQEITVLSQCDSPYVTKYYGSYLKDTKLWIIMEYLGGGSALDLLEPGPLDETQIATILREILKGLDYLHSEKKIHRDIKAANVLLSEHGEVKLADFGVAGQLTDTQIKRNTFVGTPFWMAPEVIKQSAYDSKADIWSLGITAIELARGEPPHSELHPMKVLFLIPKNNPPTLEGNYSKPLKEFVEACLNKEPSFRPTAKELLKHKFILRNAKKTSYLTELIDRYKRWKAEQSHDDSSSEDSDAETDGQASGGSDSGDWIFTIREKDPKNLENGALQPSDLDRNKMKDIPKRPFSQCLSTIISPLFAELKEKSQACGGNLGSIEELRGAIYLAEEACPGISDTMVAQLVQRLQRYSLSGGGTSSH
Tyrosine-protein kinase Lck (Homo sapiens), sequence (P06239 2-509 limits assumed): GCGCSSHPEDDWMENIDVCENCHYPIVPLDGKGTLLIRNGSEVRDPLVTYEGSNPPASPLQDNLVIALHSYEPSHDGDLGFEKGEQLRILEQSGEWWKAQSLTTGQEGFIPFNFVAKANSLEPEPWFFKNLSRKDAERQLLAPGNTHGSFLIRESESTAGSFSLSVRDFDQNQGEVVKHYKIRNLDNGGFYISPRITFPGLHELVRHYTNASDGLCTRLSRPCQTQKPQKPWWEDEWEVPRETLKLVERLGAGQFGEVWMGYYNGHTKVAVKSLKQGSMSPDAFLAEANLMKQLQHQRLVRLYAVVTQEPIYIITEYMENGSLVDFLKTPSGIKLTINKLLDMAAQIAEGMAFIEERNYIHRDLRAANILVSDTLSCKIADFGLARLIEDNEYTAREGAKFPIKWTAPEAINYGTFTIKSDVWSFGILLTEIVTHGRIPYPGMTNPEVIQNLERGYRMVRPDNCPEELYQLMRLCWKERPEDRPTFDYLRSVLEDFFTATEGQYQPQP

Turning to `C/C=C/Cn1cc(-c2ccc(C(C)(C)O)cc2OC)c2cc[nH]c2c1=O`, the IC50 in experiment [1] is > 20 µM; with MV4-11 it was 8.02 µM; in the experiment with NCI-H2228, 20 µM; with CA46, 9.85 µM; in the experiment with NCI-H1703, 20 µM; in the experiment on NCI-H1651 it was 20 µM. Further, the IC50 is 20 µM with NCI-H1975; 20 µM in [2]; 12.4 µM in the experiment with Raji; 20 µM in the experiment with NCI-H292; 20 µM with Granta-519; 20 µM with MHH-PREB-1. Further, the IC50 with ONS-76 is 20 µM; with BT-549 it was 12.2 µM; in the experiment on HCC1954 it was 20 µM; with COLO 320, 20 µM; in the experiment on COLO 320DM, 20 µM; in experiment [3], 20 µM. The IC50 in the experiment with HCC515 and in the experiment with HOP-92 was 20 µM each time. Besides, the Kd at CREB-binding protein amounted to 3.5 µM. The inhibition was found to be 4% in experiment [4], 19.5% in experiment [5] and 6% in experiment [6]. For the same compound, the Activity in experiment [7] is -10%; in experiment [8], 0%; in the experiment filed under Homo sapiens it was -6%.
Turning to `C/C=C/Cn1cc(-c2ccc(C(=O)N3CCOCC3)cc2)c2cc[nH]c2c1=O`, the IC50 in [1] turned out to be 8.3 µM; in the experiment with MV4-11, 6.86 µM; in the experiment with NCI-H2228, 20 µM; in the experiment with CA46 it was 20 µM; with NCI-H1703 it was 20 µM; in the experiment on NCI-H1651, 20 µM. Besides, the IC50 (with NCI-H1975; in [2]; in the experiment on Raji; in the experiment on NCI-H292; in the experiment on Granta-519; in the experiment with MHH-PREB-1) was 20 µM throughout. The IC50 (in the experiment with ONS-76; in the experiment on BT-549; in the experiment with HCC1954; in the experiment on COLO 320; in the experiment on COLO 320DM; in [3]) was 20 µM each time. Moreover, the IC50 with HCC515 and in the experiment with HOP-92 was 20 µM in each case. Further, the Kd at CREB-binding protein was > 10 µM. Also, the inhibition in [4] is 0.8%; in [5], 6.5%; in experiment [6], -2.5%. The Activity in experiment [7] is -7%; in experiment [8], 11%; in the experiment listed under Homo sapiens it was -5%.
In the case of `C/C=C/Cn1cc(-c2cc(OC)c(C(=O)N3CCOCC3)cc2OC)c2cc(C)[nH]c2c1=O`, the IC50 was > 20 µM in experiment [1]; 2 µM in the experiment with MV4-11; 2 µM in the experiment with NCI-H2228; 2 µM in the experiment on CA46; 2 µM in the experiment with NCI-H1703; 2 µM in the experiment with NCI-H1651. For the same compound, the IC50 (in the experiment with NCI-H1975; in experiment [2]; in the experiment on Raji; with NCI-H292; with Granta-519; with MHH-PREB-1) was 2 µM throughout. Besides, the IC50 (with ONS-76; in the experiment on BT-549; with HCC1954; in the experiment on COLO 320; with COLO 320DM; in experiment [3]) was 2 µM in each case. The IC50 in the experiment on HCC515 and in the experiment with HOP-92 was 2 µM in each case. Further, the Kd at CREB-binding protein was > 10 µM. For the same compound, the inhibition in [4] was 4%; in [5], 18.5%; in [6] it was 7%. The Activity in experiment [7] is -8%; in [8], 15%; in the experiment filed under Homo sapiens, -5%.
On to `C/C=C/Cn1cc(-c2cc(OC)c(C(C)(C)O)cc2OC)c2cc(C)[nH]c2c1=O`, for which, in [1], the IC50 is > 20 µM. The Kd at CREB-binding protein is > 10 µM.

For the origin of these results see ChEMBL document CHEMBL5260810, “Inhibition of bromodomain-containing protein 9 for the prevention of epigenetically-defined drug resistance” (Bioorg Med Chem Lett, 2017).
